Drawing on ChEMBL document CHEMBL1142619, “Three new flavonol galloylglycosides from leaves of Acacia confusa” (J Nat Prod, 2000), this text covers IC50 for 4 molecules.

In brackets after ≈: the same amount, converted by molar mass.

The subject of the test is Artemia salina. In words: Toxicity in Artemia salina assessed as inhibition of egg hatching after 48 hrs. It is filed as organism-based.

Broadly, the IC50 is the concentration that inhibits the measured activity by half. Consider `COc1cc(O)c2c(=O)c(O[C@H]3O[C@H](C)[C@@H](O)[C@H](OC(=O)c4cc(O)c(O)c(O)c4)[C@@H]3O)c(-c3cc(O)c(O)c(O)c3)oc2c1`, for which the IC50 was 50 µg/mL (≈ 79.3 µM).

Regarding `C[C@H]1O[C@H](Oc2c(-c3cc(O)c(O)c(O)c3)oc3cc(O)cc(O)c3c2=O)[C@@H](OC(=O)c2cc(O)c(O)c(O)c2)[C@@H](O)[C@@H]1O`, the IC50 is 75 µg/mL (≈ 122 µM).

On to `COc1cc(O)c2c(=O)c(O[C@H]3O[C@H](C)[C@@H](O)[C@H](O)[C@@H]3OC(=O)c3cc(O)c(O)c(O)c3)c(-c3cc(O)c(O)c(O)c3)oc2c1`, for which the IC50 came to 89 µg/mL (≈ 141 µM).

On to `C[C@H]1O[C@H](Oc2c(-c3cc(O)c(O)c(O)c3)oc3cc(O)cc(O)c3c2=O)[C@@H](O)[C@@H](OC(=O)c2cc(O)c(O)c(O)c2)[C@@H]1O`, for which the IC50 turned out to be 64 µg/mL (≈ 104 µM).
